Reference: ChEMBL document CHEMBL3585344, “Thiazole-based aminopyrimidines and N-phenylpyrazolines as potent antimicrobial agents: synthesis and biological evaluation” (2014)
In brackets after ≈: the same amount, converted by molar mass.

How the values were obtained:
Talaromyces funiculosus [1] = assay: Antifungal activity against Penicillium funiculosum ATCC 36839 after 72 hrs by microdilution method; type: functional; conditions: ATCC 36839, 72 h
Staphylococcus aureus [2] = assay: Bactericidal activity against Staphylococcus aureus ATCC 6538 after 72 hrs by microdilution method; type: functional
Listeria monocytogenes [3] = assay: Antibacterial activity against Listeria monocytogenes NCTC 7973 after 24 hrs by microdilution method; type: functional; conditions: NCTC 7973, 24 h
Aspergillus fumigatus [4] = assay: Antifungal activity against Aspergillus fumigatus isolated from human after 72 hrs by microdilution method; type: functional
Penicillium ochrochloron [5] = assay: Antifungal activity against Penicillium ochrochloron ATCC 9112 after 72 hrs by microdilution method; type: functional; conditions: ATCC 9112, 72 h
Salmonella typhimurium [6] = assay: Bactericidal activity against Salmonella typhimurium ATCC 13311 after 72 hrs by microdilution method; type: functional, Salmonella enterica subsp. enterica serovar Typhimurium
Aspergillus ochraceus [7] = assay: Antifungal activity against Aspergillus ochraceus ATCC 12066 after 72 hrs by microdilution method; type: functional; conditions: ATCC 12066, 72 h
Aspergillus flavus [8] = assay: Antifungal activity against Aspergillus flavus ATCC 9643 after 72 hrs by microdilution method; type: functional; conditions: ATCC 9643, 72 h
Escherichia coli [9] = assay: Bactericidal activity against Escherichia coli ATCC 35210 after 72 hrs by microdilution method; type: functional
Escherichia coli [10] = assay: Antibacterial activity against Escherichia coli ATCC 35210 after 24 hrs by microdilution method; type: functional; conditions: ATCC 35210, 24 h
Aspergillus versicolor [11] = assay: Antifungal activity against Aspergillus versicolor ATCC 11730 after 72 hrs by microdilution method; type: functional; conditions: ATCC 11730, 72 h
Aspergillus fumigatus [12] = assay: Fungicidal activity against Aspergillus fumigatus isolated from human after 72 hrs by microdilution method; type: functional
Talaromyces funiculosus [13] = assay: Fungicidal activity against Penicillium funiculosum ATCC 36839 after 72 hrs by microdilution method; type: functional
Bacillus cereus [14] = assay: Antibacterial activity against Bacillus cereus clinical isolate after 24 hrs by microdilution method; type: functional
Aspergillus versicolor [15] = assay: Fungicidal activity against Aspergillus versicolor ATCC 11730 after 72 hrs by microdilution method; type: functional
Salmonella typhimurium [16] = assay: Antibacterial activity against Salmonella typhimurium ATCC 13311 after 24 hrs by microdilution method; type: functional, Salmonella enterica subsp. enterica serovar Typhimurium; conditions: Salmonella enterica, ATCC 13311, 24 h
Enterococcus faecalis [17] = assay: Bactericidal activity against Enterococcus faecalis ATCC 7080 isolated from human after 72 hrs by microdilution method; type: functional
Aspergillus flavus [18] = assay: Fungicidal activity against Aspergillus flavus ATCC 9643 after 72 hrs by microdilution method; type: functional
Pseudomonas aeruginosa [19] = assay: Bactericidal activity against Pseudomonas aeruginosa ATCC 27853 after 72 hrs by microdilution method; type: functional
Staphylococcus aureus [20] = assay: Antibacterial activity against Staphylococcus aureus ATCC 6538 after 24 hrs by microdilution method; type: functional; conditions: ATCC 6538, 24 h
Aspergillus niger [21] = assay: Antifungal activity against Aspergillus niger ATCC 6275 after 72 hrs by microdilution method; type: functional; conditions: ATCC 6275, 72 h
Aspergillus niger [22] = assay: Fungicidal activity against Aspergillus niger ATCC 6275 after 72 hrs by microdilution method; type: functional
Trichoderma viride [23] = assay: Antifungal activity against Trichoderma viride IAM 5061 after 72 hrs by microdilution method; type: functional; conditions: IAM 5061, 72 h
Listeria monocytogenes [24] = assay: Bactericidal activity against Listeria monocytogenes NCTC 7973 after 72 hrs by microdilution method; type: functional
Micrococcus flavus [25] = assay: Bactericidal activity against Micrococcus flavus ATCC 10240 after 72 hrs by microdilution method; type: functional
Aspergillus ochraceus [26] = assay: Fungicidal activity against Aspergillus ochraceus ATCC 12066 after 72 hrs by microdilution method; type: functional
Bacillus cereus [27] = assay: Bactericidal activity against Bacillus cereus clinical isolate after 72 hrs by microdilution method; type: functional
Penicillium ochrochloron [28] = assay: Fungicidal activity against Penicillium ochrochloron ATCC 9112 after 72 hrs by microdilution method; type: functional
Trichoderma viride [29] = assay: Fungicidal activity against Trichoderma viride IAM 5061 after 72 hrs by microdilution method; type: functional
Micrococcus flavus [30] = assay: Antibacterial activity against Micrococcus flavus ATCC 10240 after 24 hrs by microdilution method; type: functional; conditions: ATCC 10240, 24 h
Enterococcus faecalis [31] = assay: Antibacterial activity against Enterococcus faecalis ATCC 7080 isolated from human after 24 hrs by microdilution method; type: functional; conditions: ATCC 7080, 24 h
Pseudomonas aeruginosa [32] = assay: Antibacterial activity against Pseudomonas aeruginosa ATCC 27853 after 24 hrs by microdilution method; type: functional; conditions: ATCC 27853, 24 h
Enterobacter cloacae [33] = assay: Bactericidal activity against Enterobacter cloacae ATCC 35030 isolated from human after 72 hrs by microdilution method; type: functional
Enterobacter cloacae [34] = assay: Antibacterial activity against Enterobacter cloacae ATCC 35030 isolated from human after 24 hrs by microdilution method; type: functional; conditions: ATCC 35030, 24 h

Row | Compound | MBC99.5 (Staphylococcus aureus [2]) | MIC (Listeria monocytogenes [3]) | MBC99.5 (Salmonella typhimurium [6]) | MBC99.5 (Escherichia coli [9]) | MIC (Escherichia coli [10]) | MIC (Bacillus cereus [14]) | MIC (Salmonella typhimurium [16]) | MBC99.5 (Enterococcus faecalis [17]) | MBC99.5 (Pseudomonas aeruginosa [19]) | MIC (Staphylococcus aureus [20]) | MBC99.5 (Listeria monocytogenes [24]) | MBC99.5 (Micrococcus flavus [25]) | MBC99.5 (Bacillus cereus [27]) | MIC (Micrococcus flavus [30]) | MIC (Enterococcus faecalis [31]) | MIC (Pseudomonas aeruginosa [32]) | MBC99.5 (Enterobacter cloacae [33]) | MIC (Enterobacter cloacae [34]) | other results
1 | CNc1nc(C)c(C2=NN(c3ccccc3)C(c3ccc(F)cc3)C2)s1 (stereo not drawn) | 27.3 ×10⁻² umol/ml | 54.6 µM (≈ 20 µg/mL) | 27.3 ×10⁻² umol/ml | 47.8 ×10⁻² umol/ml | 54.6 µM (≈ 20 µg/mL) | 54.6 µM (≈ 20 µg/mL) | 54.6 µM (≈ 20 µg/mL) | 27.3 ×10⁻² umol/ml | 27.3 ×10⁻² umol/ml | 27.3 µM (≈ 10 µg/mL) | 95.5 ×10⁻² umol/ml | 47.8 ×10⁻² umol/ml | 27.3 ×10⁻² umol/ml | 54.6 µM (≈ 20 µg/mL) | 54.6 µM (≈ 20 µg/mL) | 27.3 µM (≈ 10 µg/mL) | – | – | MIC (Talaromyces funiculosus [1]): 109 µM (≈ 40 µg/mL); MIC (Aspergillus fumigatus [4]): 54.6 µM (≈ 20 µg/mL); MIC (Penicillium ochrochloron [5]): 214 µM (≈ 78.4 µg/mL); MIC (Aspergillus ochraceus [7]): 54.6 µM (≈ 20 µg/mL); MIC (Aspergillus flavus [8]): 54.6 µM (≈ 20 µg/mL); MIC (Aspergillus versicolor [11]): 54.6 µM (≈ 20 µg/mL); MFC99.5 (Aspergillus fumigatus [12]): 10.92 ×10⁻² umol/ml; MFC99.5 (Talaromyces funiculosus [13]): 27.3 ×10⁻² umol/ml; MFC99.5 (Aspergillus versicolor [15]): 21.4 ×10⁻² umol/ml; MFC99.5 (Aspergillus flavus [18]): 47.8 ×10⁻² umol/ml; MIC (Aspergillus niger [21]): 478 µM (≈ 175 µg/mL); MFC99.5 (Aspergillus niger [22]): 95.5 ×10⁻² umol/ml; MIC (Trichoderma viride [23]): 109 µM (≈ 40 µg/mL); MFC99.5 (Aspergillus ochraceus [26]): 27.3 ×10⁻² umol/ml; MFC99.5 (Penicillium ochrochloron [28]): 47.8 ×10⁻² umol/ml; MFC99.5 (Trichoderma viride [29]): 47.8 ×10⁻² umol/ml
2 | CC1(C)S[C@@H]2[C@H](NC(=O)[C@H](N)c3ccccc3)C(=O)N2[C@H]1C(=O)O [AMPICILLIN] | 37.2 ×10⁻² umol/ml | 372 µM (≈ 130 µg/mL) | 49.2 ×10⁻² umol/ml | 49.2 ×10⁻² umol/ml | 372 µM (≈ 130 µg/mL) | 248 µM (≈ 86.7 µg/mL) | 248 µM (≈ 86.7 µg/mL) | 37.2 ×10⁻² umol/ml | 124 ×10⁻² umol/ml | 248 µM (≈ 86.7 µg/mL) | 74.4 ×10⁻² umol/ml | 37.2 ×10⁻² umol/ml | 37.2 ×10⁻² umol/ml | 248 µM (≈ 86.7 µg/mL) | 248 µM (≈ 86.7 µg/mL) | 744 µM (≈ 260 µg/mL) | 37.2 ×10⁻² umol/ml | 248 µM (≈ 86.7 µg/mL) | –
3 | CN[C@@H]1[C@H](O[C@H]2[C@H](O[C@H]3[C@H](O)[C@@H](O)[C@H](N=C(N)N)[C@@H](O)[C@@H]3N=C(N)N)O[C@@H](C)[C@]2(O)C=O)O[C@@H](CO)[C@H](O)[C@H]1O [STREPTOMYCIN] | 34.4 ×10⁻² umol/ml | 258 µM (≈ 150 µg/mL) | 34.4 ×10⁻² umol/ml | 34.4 ×10⁻² umol/ml | 172 µM (≈ 100 µg/mL) | 43 µM (≈ 25 µg/mL) | 172 µM (≈ 100 µg/mL) | 8.6 ×10⁻² umol/ml | 34.4 ×10⁻² umol/ml | 172 µM (≈ 100 µg/mL) | 51.6 ×10⁻² umol/ml | 17.2 ×10⁻² umol/ml | 8.6 ×10⁻² umol/ml | 86 µM (≈ 50 µg/mL) | 43 µM (≈ 25 µg/mL) | 172 µM (≈ 100 µg/mL) | 8.6 ×10⁻² umol/ml | 43 µM (≈ 25 µg/mL) | –
